From patent publication EP2197883B1, “Catecholamine derivative useful for the treatment of parkinson's disease” (H. Lundbeck A/S, priority 2007, dated 2009)

Key:
[1] = system: PD patients; conditions: intravenous (IV); cited from earlier work
[2] = man, after oral dosing; cited from earlier work
[3] = system: mouse model of severe dopamine depletion; assay: Superiority model; assay type: in vivo; conditions: mice
From the text: Both Apomorphine and L-DOPA stimulate D1 and D2-like dopamine receptors.

SMILES	antiparkinson efficacy [1]	oral bioavailability [2] [%]	reversal of motility deficits / restoration of locomotion [3]
CCCc1cc2c(s1)CN[C@@H]1CCc3cc(OC(C)=O)c(OC(C)=O)cc3[C@@H]21 [Adrogolide]	comparable to that of L-DOPA	~4	
CN1CCc2cccc3c2[C@H]1Cc1ccc(O)c(O)c1-3 [Apomorphine]			able to reverse motility deficits
N[C@@H](Cc1ccc(O)c(O)c1)C(=O)O [L-DOPA, (levo)-3,4-dihydroxy phenylalanine]			able to reverse motility deficits
